Source: patent US20090123389A1, “Methods for modulating Th17 cell development in the treatment and prevention of cellulite” (priority 2007, published 2009)

Assays:
[1] = tested on: TSK mouse; conditions: 1 μg HF/mouse IP daily; cited from earlier work
[2] = tested on: unfolded protein response (Xbp-1 splicing); assay: Xbp-1 splicing / ER stress response in activated T cells
[3] = tested on: CD4+ CD25− T cells; assay: DNA microarray transcriptional profile of T cells activated in Th17-priming conditions; assay type: cell-based, mouse; conditions: 10 nM

O=C(CC1NCCCC1O)Cn1cnc2cc(Br)c(Cl)cc2c1=O (racemic) [HF, 7-bromo-6-chloro-3-[3-(3-hydroxy-2-piperidinyl)-2-oxopropyl]-4(3H)-quinazolinone]
normal skin thickness [1]: did not reduce
skin thickness of TSK mouse [1]: reduced skin thickness of a TSK mouse to that of a normal mouse
toxic effects in TSK model [1]: no toxic effects
expression of hallmark ER stress response genes (GRP78/BiP, calreticulin and others) [2]: did not induce
Xbp-1 splicing ([2]; tunicamycin 1 μg/ml or 10 nM HF, 4 hours): without promoting Xbp-1 splicing
annotated genes differentially expressed at both time points in HF- versus MAZ1310-treated cells ([3]; 3 and 6 hours): 81
Aars transcript fold increase, HF vs. MAZ1310 ([3]; 3 hr, Th17-priming conditions): 2.7 ± 0.4 fold
Aff1 transcript fold increase, HF vs. MAZ1310 ([3]; 3 hr, Th17-priming conditions): 2.3 ± 0.4 fold
Aldh18a1 transcript fold increase, HF vs. MAZ1310 ([3]; 3 hr, Th17-priming conditions): 2.1 ± 0.5 fold
Asns transcript fold increase, HF vs. MAZ1310 ([3]; 3 hr, Th17-priming conditions): 6.1 ± 1.2 fold
Atf3 transcript fold increase, HF vs. MAZ1310 ([3]; 3 hr, Th17-priming conditions): 3.0 ± 0.1 fold
Atf5 transcript fold increase, HF vs. MAZ1310 ([3]; 3 hr, Th17-priming conditions): 2.4 ± 0.1 fold
Cars transcript fold increase, HF vs. MAZ1310 ([3]; 3 hr, Th17-priming conditions): 2.2 ± 0.4 fold
Cd274 transcript fold increase, HF vs. MAZ1310 ([3]; 3 hr, Th17-priming conditions): 2.1 ± 0.2 fold
Cebpb transcript fold increase, HF vs. MAZ1310 ([3]; 3 hr, Th17-priming conditions): 3.9 ± 0.5 fold
Cebpg transcript fold increase, HF vs. MAZ1310 ([3]; 3 hr, Th17-priming conditions): 2.5 ± 0.5 fold
Chd2 transcript fold increase, HF vs. MAZ1310 ([3]; 3 hr, Th17-priming conditions): 2.2 ± 0.3 fold
Cldn12 transcript fold increase, HF vs. MAZ1310 ([3]; 3 hr, Th17-priming conditions): 3.2 ± 0.7 fold
Clic4 transcript fold increase, HF vs. MAZ1310 ([3]; 3 hr, Th17-priming conditions): 2.4 ± 0.2 fold
Cth transcript fold increase, HF vs. MAZ1310 ([3]; 3 hr, Th17-priming conditions): 2.2 ± 0.7 fold
Cxcl10 transcript fold increase, HF vs. MAZ1310 ([3]; 3 hr, Th17-priming conditions): 2.1 ± 0.3 fold
D8Ertd56e transcript fold increase, HF vs. MAZ1310 ([3]; 3 hr, Th17-priming conditions): 2.1 ± 0.3 fold
Ddit3 transcript fold increase, HF vs. MAZ1310 ([3]; 3 hr, Th17-priming conditions): 5.6 ± 1.1 fold
Eif4Ebp1 transcript fold increase, HF vs. MAZ1310 ([3]; 3 hr, Th17-priming conditions): 6.8 ± 1.8 fold
Gpt2 transcript fold increase, HF vs. MAZ1310 ([3]; 3 hr, Th17-priming conditions): 10.0 ± 1.2 fold
Herpud1 transcript fold increase, HF vs. MAZ1310 ([3]; 3 hr, Th17-priming conditions): 2.4 ± 0.3 fold
Icam1 transcript fold increase, HF vs. MAZ1310 ([3]; 3 hr, Th17-priming conditions): 2.0 ± 0.1 fold
Irf1 transcript fold increase, HF vs. MAZ1310 ([3]; 3 hr, Th17-priming conditions): 2.0 ± 0.3 fold
Lars transcript fold increase, HF vs. MAZ1310 ([3]; 3 hr, Th17-priming conditions): 2.3 ± 0.3 fold
Mpa2l transcript fold increase, HF vs. MAZ1310 ([3]; 3 hr, Th17-priming conditions): 2.3 ± 0.3 fold
Ncoa7 transcript fold increase, HF vs. MAZ1310 ([3]; 3 hr, Th17-priming conditions): 3.0 ± 0.3 fold
Nfkbiz transcript fold increase, HF vs. MAZ1310 ([3]; 3 hr, Th17-priming conditions): 2.0 ± 0.3 fold
Pck2 transcript fold increase, HF vs. MAZ1310 ([3]; 3 hr, Th17-priming conditions): 4.9 ± 0.8 fold
Pdcd1lg2 transcript fold increase, HF vs. MAZ1310 ([3]; 3 hr, Th17-priming conditions): 3.2 ± 0.7 fold
Phgdh transcript fold increase, HF vs. MAZ1310 ([3]; 3 hr, Th17-priming conditions): 3.8 ± 0.9 fold
Psat1 transcript fold increase, HF vs. MAZ1310 ([3]; 3 hr, Th17-priming conditions): 2.1 ± 0.5 fold
Psph transcript fold increase, HF vs. MAZ1310 ([3]; 3 hr, Th17-priming conditions): 3.5 ± 0.4 fold
Pvr transcript fold increase, HF vs. MAZ1310 ([3]; 3 hr, Th17-priming conditions): 2.0 ± 0.3 fold
Pycr1 transcript fold increase, HF vs. MAZ1310 ([3]; 3 hr, Th17-priming conditions): 4.6 ± 0.7 fold
Pycs transcript fold increase, HF vs. MAZ1310 ([3]; 3 hr, Th17-priming conditions): 2.1 ± 0.2 fold
Sars1 transcript fold increase, HF vs. MAZ1310 ([3]; 3 hr, Th17-priming conditions): 2.0 ± 0.3 fold
Sesn2 transcript fold increase, HF vs. MAZ1310 ([3]; 3 hr, Th17-priming conditions): 2.6 ± 0.3 fold
Slamf7 transcript fold increase, HF vs. MAZ1310 ([3]; 3 hr, Th17-priming conditions): 2.2 ± 0.4 fold
Slc1a4 transcript fold increase, HF vs. MAZ1310 ([3]; 3 hr, Th17-priming conditions): 3.2 ± 0.9 fold
Slc5a9 transcript fold increase, HF vs. MAZ1310 ([3]; 3 hr, Th17-priming conditions): 2.4 ± 0.3 fold
Slc7a3 transcript fold increase, HF vs. MAZ1310 ([3]; 3 hr, Th17-priming conditions): 2.0 ± 0.2 fold
Slc14a1 transcript fold increase, HF vs. MAZ1310 ([3]; 3 hr, Th17-priming conditions): 2.0 ± 0.1 fold
